Laboratory results published in patent US12258424B2, “Polypeptides and compositions comprising the same” (priority 2020, dated 2025).
Residues, ends and D or L forms follow the SMILES beside them.

Key:
[1] = biological target: T1, recombinant human PD-L1 ECD protein (Homo sapiens, UniProt Q9NZQ7); experiment: SPR binding kinetics and affinity to immobilized human PD-L1; settings: for kon: read-out: Ka
T1 construct: against the recombinant human PD-L1 ECD protein were evaluated using SPR; purchased G&P Biosciences FCL0784B
Procedure: In such aspects, the equilibrium dissociate constant KD value against recombinant human PD-L1 can be determined according to an KD to PD-L1 SPR Assay. The KD to PD-L1 SPR Assay can include the use of Surface Plasmon Resonance (SPR), such as the B14500, Biosensing Instrument, and can include the following procedures. The PD-L1 protein can be diluted to 10 μg/mL with sodium acetate buffer (pH 5.0, GE Healthcare, PA) and covalently coated onto a CM5 sensor chip (CM Dextran Sensor Chip, Biosensing Instrument) using the standard Amine Coupling Kit (GE Healthcare, PA). Approximately 6500 RU of PD-L1 protein are immobilized onto the chip. A second channel is used as a reference. HBS-EP+ buffer (GE Healthcare) can be employed at a flow rate of 60 μL/min. A series of concentrations of each peptide (15, 30, 60, 125, 250, 500, 1000, 5000 and 10,000 nM) is prepared in HBS-EP+ running buffer to obtain the equilibrium dissociation constant (KD) values of the peptides. The CM5 sensor chip can be regenerated with 10 mM NaOH for 20 s. The results can be analyzed using the software of Bi data analysis software.
Evaluation of Binding Kinetics and Affinity By Surface Plasmon Resonance (SPR). Binding affinities of the PD-L1 specific peptides for human PD-L1 protein were determined by SPR (B14500, Biosensing Instrument). PD-L1 protein was diluted to 10 μg/mL with sodium acetate buffer (pH 5.0, GE Healthcare, PA) and covalently coated onto a CM5 sensor chip (CM Dextran Sensor Chip, Biosensing Instrument) using the standard Amine Coupling Kit (GE Healthcare, PA). Approximately 6500 RU of PD-L1 protein were immobilized onto the chip. A second channel was used as a reference. HBS-EP+ buffer (GE Healthcare) was employed at a flow rate of 60 μL/min. A series of concentrations of each peptide (15, 30, 60, 125, 250, 500, 1000, 5000 and 10,000 nM) were prepared in HBS-EP+ running buffer to obtain the equilibrium dissociation constant (KD) values of the peptides. The CM5 sensor chip was regenerated with 10 mM NaOH for 20 seconds. The results were analyzed using the software of Bi data analysis software. Binding affinities of the anti-PD-L1 peptides to BSA was also assessed following the procedure for human PD-L1.

[2] = tested on: CT26 tumor-bearing Balb/C mice; experiment: Survival of CT26 tumor-bearing Balb/C mice; format: in vivo, mouse
From the text: (§1) Animal Study. The animal protocol was approved by the University of Missouri-Kansas City, Institutional Animal Care and Use Committee (IACUC). Five-week old male and female Balb/c mice were purchased from Charles Rivers Laboratories (Wilmington, Mass.) and housed in a temperature and humidity controlled room on a 12-hour light-dark cycle. Approximately 5×10^5 CT26 cells were subcutaneously injected into the right flank. The mice were randomly divided into five different groups (10 mice/group, 50% female, 50% male). The mice were intraperitoneally injected with 2 mg/kg peptide daily when the tumor size reached 50-100 mm^3. The anti-mouse PD-L1 antibody (10F.9G2, BioXcell) was administrated as a positive control at a dose of 10 mg/kg every two days. The tumor size was assessed with a caliper and calculated with the formula 0.5×length×width^2. ELISA kits of PD-L1 (Cat #DY1019-05), IFNγ (Cat #DY485-05), and IL-6 (Cat #DY406-05) were used to measure the expressions of PD-L1, IFNγ, and IL-6, respectively, in tumors as per the company's instructions (R & D Systems, Minneapolis, MN).
In this Example, mice were intraperitoneally injected with the CLP002 (SEQ ID NO:2) and CLP003 (SEQ ID NO:3) peptides daily or the anti-mouse PD-L1 antibody every other day from day 4 to day 17 (see survival curves in FIG. 7a). Specifically, CT26 tumor-bearing Balb/C mice (n=10, 5 male and 5 female) were intraperitoneally injected with the anti-PD-L1 peptides (2 mg/Kg) daily and the anti-mouse PD-L1 antibody (10 mg/Kg) every other day from day 4 to day 17. GraphPad Prism 7 software (San Diego, Calif.) was used for statistical analysis. Comparison of two survival curves were conducted using the Gehan-Breslow-Wilcoxon test. […] By contrast, only 20% of the mice in the CLP002 (SEQ ID NO:2) group were dead by day 17.

[3] = tested on: CT26 colorectal tumor-bearing mouse model; experiment: Anti-tumor activity in CT26 tumor-bearing Balb/C mice; format: in vivo
From the text: as §1
The anti-mouse PD-L1 antibody (BioXcell, 10F.9G2) was administered intraperitoneally every other day at 10 mg/kg. […] In general, CLP002 (SEQ ID NO:2) exerted a better tumor inhibitory effect than CLP003 (SEQ ID NO:3), which was similar to the antibody. […] In FIG. 6e the weight of the tumors harvested at day 14 is shown. The results were represented as the mean±SD (n=10). It is noteworthy that the peptides were screened against the human PD-L1 protein, which, in fact, would compromise the anti-tumor activity of the peptides in a mouse model.

[4] = tested on: IFNγ, PD-L1 and IL-6 in CT26 tumors; experiment: ELISA of IFNγ, PD-L1 and IL-6 in harvested CT26 tumors; format: in vivo, mouse
From the text: as §1

hPD-L1 [5] = biological target: T2, hPD-L1 (Homo sapiens, UniProt Q9NZQ7); experiment: Blockade of the PD-1/PD-L1 interaction, plate coated with human PD-L1 protein; format: binding; design: PD-L1 protein (G&P Biosciences, human PD-L1 ECD, cat #FCL0784B); purchased G&P Biosciences FCL0784B (PD-L1)
Procedure: (§2) Ninety-six-well plates were coated with 100 ng of PD-L1 protein (G&P Biosciences, human PD-L1 ECD, cat #FCL0784B. mouse PD-L1, cat #FCL3502B) and later blocked with 2% BSA for 2 hours at room temperature. Various concentrations of peptides were loaded into the wells and incubated for 1 hour at room temperature. […] Streptavidin-HRP (R & D systems) and chromogenic substrate were added into the wells. OD450 was then recorded and referenced to OD540.

4T1 cancer cell = format: cell-based, mouse; settings: for Blocking Efficiency (%): 4T1 cancer cell; for IC50: 2 h
[6] = tested on: CD8+ T cells in CT26 tumor tissues; experiment: IHC staining of CD8+ T cells in CT26 tumor tissues; format: in vivo, mouse
Procedure: Immunohistochemistry (IHC) Staining. Tumor tissues were fixed in 10% formalin, embedded in paraffin, sectioned, and mounted on glass slides by Truman Medical Centers Anatomic Pathology Core (Kansas City, MO). The slides were heated in Tris buffer (pH 9.0) for 45 min to recover antigen. After deparaffinization and rehydration, the sections were stained with the anti-mouse CD8 alpha antibody (Abcam, ab209775) overnight at 4° C. The slides were incubated with a biotinylated goat anti-rabbit secondary antibody, followed by the DAB chromogen mixture. Four sections (2 male and 2 female) were imaged in each group. For each section, 3 regions were randomly selected for imaging.

DU145 cancer cell = format: cell-based, human; settings: for IC50: 2 h; for Blocking Efficiency (%): DU-145 cancer cells
Procedure: as §2
The blocking efficiency of the anti-PD-L1 peptides at 10 μM (FIG. 2c). […] The IC50 of each peptide was also determined using recombinant human PD-L1 protein and DU-145 cancer cells.

[7] = Proteolytic stability in 50% human serum (LC-MS); format: in vitro ADME
Procedure: Half-life in 50% human serum. Proteolytic stability of the peptides was investigated using LC-MS. Solutions of the anti-PD-L1 peptides were incubated with 50% human serum at […], aliquots were taken at specific time points for processing and subsequent LC-MS analysis.

hPD-L1 [8] = biological target: T2, hPD-L1; experiment: PD-1/PD-L1 inhibitor screening ELISA, human proteins; format: binding; design: purchased Acro Biosystems EP-101
Procedure: (§3) Blocking efficiency at 10 μM/IC50 against human and mouse PD1/PD-L1 (ELISA). […] 100 ng of recombinant human PD-L1 protein was coated in 96-well plates at 4° C. for 16 h with shaking over an orbital shaker. Unbound protein was removed by washing twice with PBS (pH 7.2-7.4), 2% BSA was added for 1.5 h at 37° C. to block the plate. Specific concentrations of the peptides were dispensed into the appropriate wells and incubated for 2 h at 37° C. […] This was followed by the addition of streptavidin-HRP and chromogenic substrate (R & D systems). The color reaction was terminated with 2N H2SO4, absorbance was recorded at OD450 and referenced to OD540.

PD1/PD-L1 = PD1/PD-L1 (Homo sapiens, UniProt Q9NZQ7); experiment: IC50 and blocking efficiency against PD1/PD-L1 (Table 5); format: binding
Procedure: as §3

[9] = biological target: human PD-L1/CD80 interaction (Homo sapiens, UniProt Q9NZQ7); experiment: Blockade of the CD80/PD-L1 interaction; format: binding; settings: at 10 μM, FIG. 8a
mPD-L1 = mPD-L1 (Mus musculus, UniProt Q9EP73); experiment: Blockade of the mouse PD-1/PD-L1 interaction, mouse PD-L1 protein; format: binding; design: purchased G&P Biosciences FCL3502B (PD-L1); settings: mouse PD-L1 protein
Procedure: as §2

T1 sequence (Q9NZQ7 19-238 limits assumed): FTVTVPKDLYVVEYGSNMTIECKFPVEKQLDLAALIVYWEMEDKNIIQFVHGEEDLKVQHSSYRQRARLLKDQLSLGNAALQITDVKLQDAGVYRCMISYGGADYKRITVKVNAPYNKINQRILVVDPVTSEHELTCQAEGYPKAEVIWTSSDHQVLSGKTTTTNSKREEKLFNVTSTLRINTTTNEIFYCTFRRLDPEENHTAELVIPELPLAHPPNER
T2 sequence (Q9NZQ7 19-238 limits assumed): as above
mPD-L1, sequence (Q9EP73 19-239 limits assumed): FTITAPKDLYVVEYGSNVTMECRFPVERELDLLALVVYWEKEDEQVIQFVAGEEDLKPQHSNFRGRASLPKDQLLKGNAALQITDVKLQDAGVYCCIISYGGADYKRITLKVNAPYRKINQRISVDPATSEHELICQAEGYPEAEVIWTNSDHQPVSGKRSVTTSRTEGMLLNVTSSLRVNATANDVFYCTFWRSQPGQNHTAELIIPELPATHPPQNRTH
PD1/PD-L1, sequence (Q9NZQ7 19-238 limits assumed): as the sequence (Q9NZQ7 19-238 limits assumed) above
human PD-L1/CD80 interaction, sequence (Q9NZQ7 19-238 limits assumed): as above

SMILES: CC(C)C[C@H](NC(=O)[C@H](Cc1c[nH]c2ccccc12)NC(=O)[C@H](CCCNC(=N)N)NC(=O)[C@H](Cc1c[nH]c2ccccc12)NC(=O)[C@H](CC(N)=O)NC(=O)[C@H](Cc1ccc(O)cc1)NC(=O)[C@H](CO)NC(=O)[C@H](Cc1ccccc1)NC(=O)[C@H](Cc1c[nH]cn1)NC(=O)[C@@H](N)Cc1c[nH]c2ccccc12)C(=O)N1CCC[C@H]1C(=O)N1CCC[C@H]1C(=O)O [CLP003] (H-WHFSYNWRWLPP-OH; N-terminus and C-terminus assumed)
- Kd [1]: 117 nM
- kon [1]: 22600 M⁻¹ s⁻¹
- Tumor growth in the survival study ([2]; Example 7, individual growth curves): other mice experienced a rapid tumor progression
- Mice died on day 17 (in words) ([2]; n=10): only one mouse died on day 17
- Survival of tumor-bearing mice ([2]; treatment from day 4 to day 17): modestly improved the survival
- Tumor growth ([3]; peptides 2 mg/kg i.p. daily, antibody 10 mg/kg i.p. every other day): effectively suppressed tumor growth
- Tumor weights at day 14 ([3]; versus saline group): significantly smaller than the saline group
- IL-6 expression in tumor tissues [4]: decreased expression of IL-6
- IC50 (hPD-L1 [5]; plate coated with human PD-L1 protein): 2220 nM
- Blocking Efficiency (%) (4T1 cancer cell): 50%
- IC50 (4T1 cancer cell): 1000 nM
- Density of CD8+ T cells in tumor tissues [6]: significantly increased
- IC50 (DU145 cancer cell): 3050 nM
- Blocking Efficiency (%) (DU145 cancer cell): 56%

SMILES: C[C@@H](O)[C@H](NC(=O)[C@H](Cc1ccc(O)cc1)NC(=O)[C@H](Cc1ccc(O)cc1)NC(=O)[C@H](CO)NC(=O)[C@H](CCCNC(=N)N)NC(=O)[C@H](Cc1c[nH]cn1)NC(=O)[C@@H](N)Cc1c[nH]c2ccccc12)C(=O)N[C@@H](Cc1c[nH]c2ccccc12)C(=O)N[C@@H](CC(N)=O)C(=O)O [CLP2TR3] (H-WHRSYYTWN-OH; N-terminus and C-terminus assumed)
- half-life [7]: 15 min
- % Blocking efficiency at 10 μM (ELISA) hPD-L1 (hPD-L1 [8]): 80%
- % Blocking efficiency at 10 μM (PD1/PD-L1): 80%

SMILES: CC(C)C[C@H](NC(=O)[C@@H](NC(=O)[C@@H]1CCCN1C(=O)[C@H](CC(C)C)NC(=O)[C@H](CO)NC(=O)[C@@H]1CCCN1C(=O)[C@H](CC(=O)O)NC(=O)[C@H](Cc1c[nH]cn1)NC(=O)[C@H](Cc1ccc(O)cc1)NC(=O)[C@@H](N)CC(=O)O)[C@@H](C)O)C(=O)N[C@@H](CCCNC(=N)N)C(=O)N[C@@H](CCCCN)C(=O)O [CLP004] (H-DYHDPSLPTLRK-OH; N-terminus and C-terminus assumed)
- kon [1]: 5140 M⁻¹ s⁻¹
- Blocking Efficiency (%) (hPD-L1 [5]; human PD-L1 protein): 52%
- Blocking efficiency against CD80/PD-L1 interaction [9]: ~27%
- Blocking Efficiency (%) (mPD-L1): 48%
- IC50 (mPD-L1): 1910 nM
- Blocking Efficiency (%) (4T1 cancer cell): 34%
- IC50 (4T1 cancer cell): 730 nM
- IC50 (DU145 cancer cell): 200 nM
- Blocking Efficiency (%) (DU145 cancer cell): 60%
